Test results taken from patent publication US5955440A, “Macrolide LHRH antagonists” (Abbott Laboratories, priority 1998, dated 1999).

Tests used:
[1] = biological target: T1, LHRH rat pituitary receptor (Rattus norvegicus, UniProt P30969); assay: LHRH rat pituitary receptor binding (pKI); details: negative logarithm of the equilibrium dissociation constants; for Ki: Table 1, read-out: receptor binding affinity (pKI) (converted)
T1 construct: from tissue; host or cells: rat pituitary
T1 sequence (P30969 1-327): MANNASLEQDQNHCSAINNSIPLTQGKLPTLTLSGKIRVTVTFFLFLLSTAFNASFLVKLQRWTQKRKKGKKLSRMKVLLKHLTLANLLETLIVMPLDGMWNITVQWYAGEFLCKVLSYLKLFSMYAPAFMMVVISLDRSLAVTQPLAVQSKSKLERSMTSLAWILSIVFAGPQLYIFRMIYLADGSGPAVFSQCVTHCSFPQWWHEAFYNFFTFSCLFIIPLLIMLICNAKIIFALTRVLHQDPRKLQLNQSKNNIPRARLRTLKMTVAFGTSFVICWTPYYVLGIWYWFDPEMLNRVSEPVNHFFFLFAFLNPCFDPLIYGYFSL
Experimental: (§1) Representative compounds of the present invention were evaluated in in vitro tests for LHRH rat pituitary receptor binding (pKI) and for LH inhibition from rat pituitary cells for antagonist potency (pA2). The tests employed the methods detailed in F. Haviv, et al. J. Med. Chem., 32: 2340-2344 (1989). The receptor binding affinity (pKI) is the negative logarithm of the equilibrium dissociation constants.

rat pituitary cells = biological target: T2, rat pituitary cells (Rattus norvegicus, UniProt P30969); assay: LH inhibition from rat pituitary cells, antagonist potency (pA2); assay type: cell-based; details: negative log of antagonist concentration shifting the leuprolide response curve to two-fold higher concentration, Table 2
T2 construct: endogenous in cells; host or cells: rat pituitary cells
T2 sequence (P30969 1-327): T1 sequence (P30969 1-327)
Experimental: as §1
The pA2 value is the negative logarithm of the concentration of antagonist which shifts the response curve produced by the agonist leuprolide to two-fold higher concentration. Leuprolide is the LHRH agonist having the structure pyro-Glu^1 -His^2 -Trp^3 -Ser^4 -Tyr^5 -D-Leu^6 -Leu^7 -Arg^8 -Pro^9 -NHEt and is disclosed and claimed in U.S. Pat. No. 4,005,063. Typically pA2 values of 7.0 or greater are indicative of good LHRH antagonist potency.

Structure (SMILES) | Ki [1] [nM] | Kb (rat pituitary cells) [nM] | receptor binding affinity (pKI) ([1]; Table 1) | pA2 (rat pituitary cells)
CC[C@H]1OC(=O)[C@H](C)[C@@H](O[C@H]2C[C@@](C)(OC)[C@@H](O)[C@H](C)O2)[C@H](C)[C@@H](O[C@@H]2O[C@H](C)C[C@H](N(C)CC)[C@H]2O)[C@](C)(OC)C[C@@H](C)C(=O)[C@H](C)[C@H]2N(CCc3ccc(Cl)cc3)C(=O)O[C@]12C [Example 21, 3'-N-Desmethyl-3'-N-ethyl-11-deoxy-11-[carboxy-(4-chlorophenethylamino)]-6-O-methyl-erythromycin A 11,12-(cyclic carbamate)] | 6.17 | 55 |  | 
CC[C@H]1OC(=O)[C@H](C)[C@@H](O[C@H]2C[C@@](C)(OC)[C@@H](O)[C@H](C)O2)[C@H](C)[C@@H](O[C@@H]2O[C@H](C)C[C@H](N(C)C3CCCC3)[C@H]2O)[C@](C)(OC)C[C@@H](C)C(=O)[C@H](C)[C@H]2N(CCc3ccc(F)c(F)c3)C(=O)O[C@]12C [Example 31, 3'-N-Desmethyl-3'-N-cyclopentyl-11-deoxy-11-[carboxy-(3,4-difluorophenethylamino)]-6-O-methyl-erythromycin A 11,12-(cyclic carbamate)] | 0.269 | 5.75 |  | 
CC[C@H]1OC(=O)[C@H](C)[C@@H](O[C@H]2C[C@@](C)(OC)[C@@H](O)[C@H](C)O2)[C@H](C)[C@@H](O[C@@H]2O[C@H](C)C[C@H](N(C)CC3CC3)[C@H]2O)[C@](C)(OC)C[C@@H](C)C(=O)[C@H](C)[C@H]2N(CCc3ccc(F)c(F)c3)C(=O)O[C@]12C [Example 33, 3'-N-Desmethyl-3'-N-cyclopropylmethyl-11-deoxy-11-[carboxy-(3,4-difluorophenethylamino)]-6-O-methyl-erythromycin A 11,12-(cyclic carbamate)] | 0.676 | 3.98 |  | 
CC[C@H]1OC(=O)[C@H](C)[C@@H](O[C@H]2C[C@@](C)(OC)[C@@H](O)[C@H](C)O2)[C@H](C)[C@@H](O[C@@H]2O[C@H](C)C[C@H](N(C)C3CCC3)[C@H]2O)[C@](C)(OC)C[C@@H](C)C(=O)[C@H](C)[C@H]2N(CCc3ccc(F)c(F)c3)C(=O)O[C@]12C [Example 30, 3'-N-Desmethyl-3'-N-cyclobutyl-11-deoxy-11-[carboxy-(3,4-difluorophenethylamino)]-6-O-methyl-erythromycin A 11,12-(cyclic carbamate)] | 0.513 | 5.25 |  | 
CC[C@H]1OC(=O)[C@H](C)[C@@H](O[C@H]2C[C@@](C)(OC)[C@@H](O)[C@H](C)O2)[C@H](C)[C@@H](O[C@@H]2O[C@H](C)C[C@H](N(C)CC3CC3)[C@H]2O)[C@](C)(OC)C[C@@H](C)C(=O)[C@H](C)[C@H]2N(CCc3ccc(F)c(Cl)c3)C(=O)O[C@]12C [Example 29, 3'-N-Desmethyl-3'-N-cyclopropylmethyl-11-deoxy-11-(3-chloro-4-fluorophenethylamino)-6-O-methyl-erythromycin A 11,12-(cyclic carbamate)] | 0.537 | 1.07 |  | 
CC[C@H]1OC(=O)[C@H](C)[C@@H](O[C@H]2C[C@@](C)(OC)[C@@H](O)[C@H](C)O2)[C@H](C)[C@@H](O[C@@H]2O[C@H](C)C[C@H](N(C)C3CCCC3)[C@H]2O)[C@](C)(OC)C[C@@H](C)C(=O)[C@H](C)[C@H]2N(CCc3ccc(Cl)cc3)C(=O)O[C@]12C [Example 23, 3'-N-Desmethyl-3'-N-cyclopentyl-11-deoxy-11-[carboxy-(4-chlorophenethylamino)]-6-O-methyl-erythromycin A 11,12-(cyclic carbamate)] | 6.76 | 50.1 |  | 
CCCN(C)[C@H]1C[C@@H](C)O[C@@H](O[C@@H]2[C@@H](C)[C@H](O[C@H]3C[C@@](C)(OC)[C@@H](O)[C@H](C)O3)[C@@H](C)C(=O)O[C@H](CC)[C@@]3(C)OC(=O)N(CCc4ccc(Cl)c(Cl)c4)[C@@H]3[C@@H](C)C(=O)[C@H](C)C[C@@]2(C)OC)[C@@H]1O [Example 3, 3'-N-Desmethyl-3'-N-n-propyl-11-deoxy-11-[carboxy-(3,4-dichlorophenethylamino)]-6-O-methyl-erythromycin A 11,12-(cyclic carbamate)] |  |  | 9.13 | 8.60
CC[C@H]1OC(=O)[C@H](C)[C@@H](O[C@H]2C[C@@](C)(OC)[C@@H](O)[C@H](C)O2)[C@H](C)[C@@H](O[C@@H]2O[C@H](C)C[C@H](N(C)C3CCC3)[C@H]2O)[C@](C)(OC)C[C@@H](C)C(=O)[C@H](C)[C@H]2N(CCc3ccc(F)c(Cl)c3)C(=O)O[C@]12C [Example 27, 3'-N-Desmethyl-3'-N-cyclobutyl-11-deoxy-11-[carboxy-(3-chloro-4-fluorophenethylamino)]-6-O-methyl-erythromycin A 11,12-(cyclic carbamate)] | 1.55 | 3.8 |  | 
CC[C@H]1OC(=O)[C@H](C)[C@@H](O[C@H]2C[C@@](C)(OC)[C@@H](O)[C@H](C)O2)[C@H](C)[C@@H](O[C@@H]2O[C@H](C)C[C@H](N(C)C(C)C)[C@H]2O)[C@](C)(OC)C[C@@H](C)C(=O)[C@H](C)[C@H]2N(CCc3ccc(F)c(Cl)c3)C(=O)O[C@]12C [Example 28, 3'-N-Desmethyl-3'-N-isopropyl-11-deoxy-11-[carboxy-(3-chloro-4-fluorophenethylamino)]-6-O-methyl-erythromycin A 11,12-(cyclic carbamate)] | 0.324 | 3.02 |  | 
CC[C@H]1OC(=O)[C@H](C)[C@@H](O[C@H]2C[C@@](C)(OC)[C@@H](O)[C@H](C)O2)[C@H](C)[C@@H](O[C@@H]2O[C@H](C)C[C@H](N(C)C3CCCC3)[C@H]2O)[C@](C)(OC)C[C@@H](C)C(=O)[C@H](C)[C@H]2N(CCc3ccc(Cl)c(Cl)c3)C(=O)O[C@]12C [Example 1, 3'-N-Desmethyl-3'-N-cyclopentyl-11-deoxy-11-[carboxy-(3,4-dichlorophenethylamino)]-6-O-methyl-erythromycin A 11,12-(cyclic carbamate)] | 0.813 | 0.794 |  | 
CC[C@H]1OC(=O)[C@H](C)[C@@H](O[C@H]2C[C@@](C)(OC)[C@@H](O)[C@H](C)O2)[C@H](C)[C@@H](O[C@@H]2O[C@H](C)C[C@H](N(C)C3CCCC3)[C@H]2O)[C@](C)(OC)C[C@@H](C)C(=O)[C@H](C)[C@H]2N(CCc3ccc(F)c(Cl)c3)C(=O)O[C@]12C [Example 26, 3'-N-Desmethyl-3'-N-cyclopentyl-11-deoxy-11-[carboxy-(3-chloro-4-fluorophenethylamino)]-6-O-methyl-erythromycin A 11,12-(cyclic carbamate)] | 1.48 | 2.19 |  | 
CCCN(C)[C@H]1C[C@@H](C)O[C@@H](O[C@@H]2[C@@H](C)[C@H](O[C@H]3C[C@@](C)(OC)[C@@H](O)[C@H](C)O3)[C@@H](C)C(=O)O[C@H](CC)[C@@]3(C)OC(=O)N(CCc4ccc(F)c(F)c4)[C@@H]3[C@@H](C)C(=O)[C@H](C)C[C@@]2(C)OC)[C@@H]1O [Example 32, 3'-N-Desmethyl-3'-N-n-propyl-11-deoxy-11-[carboxy-(3,4-difluorophenethylamino)]-6-O-methyl-erythromycin A 11,12-(cyclic carbamate)] | 0.0832 | 26.3 |  | 
CC[C@H]1OC(=O)[C@H](C)[C@@H](O[C@H]2C[C@@](C)(OC)[C@@H](O)[C@H](C)O2)[C@H](C)[C@@H](O[C@@H]2O[C@H](C)C[C@H](N(C)C(C)C)[C@H]2O)[C@](C)(OC)C[C@@H](C)C(=O)[C@H](C)[C@H]2N(CCc3ccc(Cl)cc3)C(=O)O[C@]12C [Example 22, 3'-N-Desmethyl-3'-N-isopropyl-11-deoxy-11-[carboxy-(4-chlorophenethylamino)]-6-O-methyl-erythromycin A 11,12-(cyclic carbamate)] | 4.47 | 30.2 |  | 
CCCN(C)[C@H]1C[C@@H](C)O[C@@H](O[C@@H]2[C@@H](C)[C@H](O[C@H]3C[C@@](C)(OC)[C@@H](O)[C@H](C)O3)[C@@H](C)C(=O)O[C@H](CC)[C@@]3(C)OC(=O)N(CCc4ccc(Cl)c(F)c4)[C@@H]3[C@@H](C)C(=O)[C@H](C)C[C@@]2(C)OC)[C@@H]1O [Example 16, 3'-N-Desmethyl-3'-N-n-propyl-11-deoxy-11-[carboxy-(4-chloro-3-fluorophenethylamino)]-6-O-methyl-erythromycin A 11,12-(cyclic carbamate)] | 3.98 | 32.4 |  | 
CCCN(C)[C@H]1C[C@@H](C)O[C@@H](O[C@@H]2[C@@H](C)[C@H](O[C@H]3C[C@@](C)(OC)[C@@H](O)[C@H](C)O3)[C@@H](C)C(=O)O[C@H](CC)[C@@]3(C)OC(=O)N(CCc4cccc(Cl)c4)[C@@H]3[C@@H](C)C(=O)[C@H](C)C[C@@]2(C)OC)[C@@H]1O [Example 25, 3'-N-Desmethyl-3'-N-n-propyl-11-deoxy-11-[carboxy-(3-chlorophenethylamino)]-6-O-methyl-erythromycin A 11,12-(cyclic carbamate)] | 4.17 | 37.2 |  | 
